We go through 29 compounds from PubChem BioAssay (NCI).

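Tested at 5 concentrations; 48 h exposure; 96-well plates; endpoints linearly interpolated, else capped at highest concentration. GI50 = concentration required for 50% inhibition of growth. At the TGI there is no net growth.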

One assay deals with TK-10 renal. Briefly: inhibition of tumour cell growth, NCI panel, 48 h.
In the case of `O=[N+]([O-])c1ccc(-c2cc3c(Nc4ccc(Cl)c(C(F)(F)F)c4)ncnc3s2)cc1`, the GI50 is 3.56 µM and the TGI is greater than 100 µM.
With `COC(=O)C1C(=O)N(CCc2c[nH]c3ccccc23)C[C@@H]2CCC(=O)C[C@H]12` (some centres undefined), the TGI is greater than 100 µM.
For `C[C@]12C/C(=C/O)C(=O)C(O)=C1CC[C@@H]1C2CC[C@@]2(C)C1CC[C@@H]2O` (some centres undefined), the TGI is greater than 100 µM.
In the case of `Cc1ccc(C)c(N2C(=O)C(=O)C(c3nc4ccccc4s3)C(=Nc3cccc4c(=O)[nH][nH]c(=O)c34)C2=O)c1` (centres undefined), the TGI is greater than 100 µM.
For the compound `Cc1cccc(C)c1N1C(=O)C(=O)C(c2nc3ccccc3s2)C(=Nc2cccc3c(=O)[nH][nH]c(=O)c23)C1=O` (centres undefined), the TGI is greater than 100 µM.
The same measure, in the same setting: for `N#CC(C#N)=c1c2nsnc2c(=C(C#N)C#N)c2nsnc12` the value was 31.3 µM.

The test system of another assay is U251 CNS. The assay can be described thus: inhibition of tumour cell growth, NCI panel, 48 h.
`Cc1c2ccncc2c(C)c2c1[nH]c1ccc(O)c(OCC(F)(F)F)c12`: the TGI was determined as 10.7 µM.
For `CC(C)(C)OC(=O)NC1CCCC1=O` (centres undefined), the TGI was greater than 100 µM.
Still for that read-out and setting: then `Cc1c(C(=O)/C=C/c2ccccc2[N+](=O)[O-])[n+](=O)c2ccccc2n1[O-]`, with 28.5 µM; and `O=C1[C@H]2ON(c3ccccc3)C(c3ccco3)[C@H]2C(=O)N1c1ccc(Cc2ccc(N3C(=O)[C@@H]4ON(c5ccccc5)C(c5ccco5)[C@@H]4C3=O)cc2)cc1` (some centres undefined), with greater than 100 µM; and `Cc1cccc(C)c1N1C(=O)C(=O)C(c2nc3ccccc3s2)/C(=N/NC(=O)NN)C1=O` (centres undefined), with greater than 100 µM.
On to `CCCCCCC(C)CCCCCCCCCCC(=O)O` (centres undefined), for which the TGI is greater than 100 µM.
On the same count and under the same terms, for `CC(C)(C)c1ccc(OC2CCO2)cc1` (centres undefined) the value was 35.3 µM; for `CC1(O)CCn2c(=O)c3cc4ccccc4cc3c(=O)n2C1O` (centres undefined), greater than 100 µM.
On to `CC(C)[O-].CC(C)[O-].O=c1cccccc1[O-].O=c1cccccc1[O-].[Ti+4]`, for which the GI50 was 28.9 µM and the TGI is greater than 100 µM.
Compound `COc1cc(CNc2nc3ccc(C(F)(F)F)cc3nc2-c2ccccc2)cc(OC)c1OC` registered a TGI greater than 100 µM.
Still for that read-out and setting: then `COc1ccccc1NC(=O)/C(=C/c1ccccc1)C(C)=O`, with 15 µM; and `CC(=O)n1c(=O)c2cc3c(=O)n(-c4cccc(C#N)c4)c(=O)c3cc2c1=O`, with greater than 100 µM; and `O=C(CC1(O)C(=O)Nc2c(Cl)ccc(Cl)c21)c1ccc(Cl)cc1Cl` (centres undefined), with 21.9 µM.
For `COc1ccc(C2Oc3c(c(O)cc4c3[C@H](c3ccc(O)cc3O)[C@H](O)C(c3ccc(O)c(O)c3)O4)C[C@@H]2O)cc1O` (some centres undefined), the TGI was greater than 100 µM.
The same measure, in the same setting: for `CCOC(OC1=C(C#N)CCCC1)C(CC)[Se]c1ccccc1` (centres undefined) the value was 44.3 µM.
Same read-out and setting: then `C=C1C2Oc3ccccc3C1N(c1ccccc1)O2` (centres undefined), with 90 µM; and `O=S1CSSC1`, with 37.5 µM.
The same measure, in the same setting: for `C=CCNC(=O)N(CCC)CCCC(NC(C)=O)C(=O)NCc1ccccc1` (centres undefined) the value was greater than 100 µM.
Turning to `CN(C)C(=S)Nc1nnc(Nc2ccccc2)s1`, the TGI is greater than 100 µM.
As for `CC(=O)[CH-]C(=O)c1ccccc1.CC(=O)[CH-]C(=O)c1ccccc1.CC1(C)OCC(C2OC3OC(C)(C)OC3C2[O-])O1.CC[O-].[Ti+4]` (centres undefined), the GI50 was 13.1 µM and the TGI was determined as 28.3 µM.
Consider `CCOC(=O)C1(Cc2ccc3ccccc3c2)CCCCC(=O)N1` (centres undefined), for which the TGI is greater than 100 µM.
For `O=[N+]([O-])c1ccc(-c2cc3c(Nc4ccc(Cl)c(C(F)(F)F)c4)ncnc3s2)cc1`, the GI50 was 1.38 µM and the TGI was greater than 87.8 µM.
In turn, `Cc1ccccc1/C=C/C(=O)c1ccccc1` yielded a TGI of 30.5 µM.
On the same count and under the same terms, for `COC(=O)C1C(=O)N(CCc2c[nH]c3ccccc23)C[C@@H]2CCC(=O)C[C@H]12` (some centres undefined) the value was greater than 100 µM; for `Cc1ccc(C)c(N2C(=O)C(=O)C(c3nc4ccccc4s3)C(=Nc3cccc4c(=O)[nH][nH]c(=O)c34)C2=O)c1` (centres undefined), greater than 100 µM.
On the same count and under the same terms, for `Cc1cccc(C)c1N1C(=O)C(=O)C(c2nc3ccccc3s2)C(=Nc2cccc3c(=O)[nH][nH]c(=O)c23)C1=O` (centres undefined) the value was greater than 100 µM.
Compound `N#CC(C#N)=c1c2nsnc2c(=C(C#N)C#N)c2nsnc12` yielded a TGI of 3.19 µM.

The next assay concerns UACC-62 melanoma. The assay can be described thus: inhibition of tumour cell growth, NCI panel, 48 h.
Take `Cc1c2ccncc2c(C)c2c1[nH]c1ccc(O)c(OCC(F)(F)F)c12`: the TGI was 21.6 µM.
On to `CC(C)(C)OC(=O)NC1CCCC1=O` (centres undefined), for which the TGI was greater than 100 µM.
With `O=C1[C@H]2ON(c3ccccc3)C(c3ccco3)[C@H]2C(=O)N1c1ccc(Cc2ccc(N3C(=O)[C@@H]4ON(c5ccccc5)C(c5ccco5)[C@@H]4C3=O)cc2)cc1` (some centres undefined), the TGI is greater than 100 µM.
Turning to `Cc1cccc(C)c1N1C(=O)C(=O)C(c2nc3ccccc3s2)/C(=N/NC(=O)NN)C1=O` (centres undefined), the TGI was greater than 100 µM.
With `CCCCCCC(C)CCCCCCCCCCC(=O)O` (centres undefined), the TGI is greater than 100 µM.
`CC(C)(C)c1ccc(OC2CCO2)cc1` (centres undefined) showed a TGI greater than 100 µM.
Take `CC1(O)CCn2c(=O)c3cc4ccccc4cc3c(=O)n2C1O` (centres undefined): the TGI was greater than 100 µM.
Compound `CC(C)[O-].CC(C)[O-].O=c1cccccc1[O-].O=c1cccccc1[O-].[Ti+4]` yielded a TGI greater than 100 µM.
Still for that read-out and setting: then `COc1cc(CNc2nc3ccc(C(F)(F)F)cc3nc2-c2ccccc2)cc(OC)c1OC`, with greater than 100 µM.
In the case of `COc1ccccc1NC(=O)/C(=C/c1ccccc1)C(C)=O`, the TGI was greater than 100 µM.
Consider `CC(=O)n1c(=O)c2cc3c(=O)n(-c4cccc(C#N)c4)c(=O)c3cc2c1=O`, for which the TGI was greater than 100 µM.
On the same count and under the same terms, for `O=C(CC1(O)C(=O)Nc2c(Cl)ccc(Cl)c21)c1ccc(Cl)cc1Cl` (centres undefined) the value was 34.9 µM; for `CC1=NN(C(=O)c2ccncc2)C(=O)C1N=Nc1ccc(F)cc1` (centres undefined), greater than 100 µM.
Still for that read-out and setting: then `COc1ccc(C2Oc3c(c(O)cc4c3[C@H](c3ccc(O)cc3O)[C@H](O)C(c3ccc(O)c(O)c3)O4)C[C@@H]2O)cc1O` (some centres undefined), with greater than 100 µM; and `CCOC(OC1=C(C#N)CCCC1)C(CC)[Se]c1ccccc1` (centres undefined), with 48 µM.
The compound `O=S1CSSC1` returned a TGI of 25.8 µM.
On to `C=CCNC(=O)N(CCC)CCCC(NC(C)=O)C(=O)NCc1ccccc1` (centres undefined), for which the TGI is greater than 100 µM.
Turning to `CC(=O)[CH-]C(=O)c1ccccc1.CC(=O)[CH-]C(=O)c1ccccc1.CC1(C)OCC(C2OC3OC(C)(C)OC3C2[O-])O1.CC[O-].[Ti+4]` (centres undefined), the GI50 is 14.2 µM and the TGI worked out at 28.8 µM.
`CCOC(=O)C1(Cc2ccc3ccccc3c2)CCCCC(=O)N1` (centres undefined): the TGI is greater than 100 µM.
`O=[N+]([O-])c1ccc(-c2cc3c(Nc4ccc(Cl)c(C(F)(F)F)c4)ncnc3s2)cc1`: the GI50 is 1.63 µM and the TGI was greater than 100 µM.
Take `Cc1ccccc1/C=C/C(=O)c1ccccc1`: the TGI was 38 µM.
The same measure, in the same setting: for `COC(=O)C1C(=O)N(CCc2c[nH]c3ccccc23)C[C@@H]2CCC(=O)C[C@H]12` (some centres undefined) the value was greater than 100 µM; for `C[C@]12C/C(=C/O)C(=O)C(O)=C1CC[C@@H]1C2CC[C@@]2(C)C1CC[C@@H]2O` (some centres undefined), 46.7 µM.
In the case of `Cc1ccc(C)c(N2C(=O)C(=O)C(c3nc4ccccc4s3)C(=Nc3cccc4c(=O)[nH][nH]c(=O)c34)C2=O)c1` (centres undefined), the TGI is greater than 100 µM.
On the same count and under the same terms, for `Cc1cccc(C)c1N1C(=O)C(=O)C(c2nc3ccccc3s2)C(=Nc2cccc3c(=O)[nH][nH]c(=O)c23)C1=O` (centres undefined) the value was greater than 100 µM.
